Data taken from patent US8748480B2, “Methods for treating opioid tolerance” (priority 2005, dated 2014).
pIC50: −log10 of the molar value. Read-outs that look alike come from different tables or passages of the source. No end group written: not given here.

Assays:
[1] = target: T1, Gβγ (protein interaction site of Gβ) (Rattus norvegicus, UniProt P54311); experiment: Phage ELISA: small molecules competing with SIGK-phage binding to immobilized biotinylated Gβγ
T1 construct: made in house; host or cells: Sf9 insect cells (baculovirus), co-expressed with BirA and (His)6-Gαi1
Description: Exemplary compounds of the present invention were initially selected from a computational screen to identify ligands that bind to the novel protein interaction site of Gβ. The computational screen involved using SYBYL molecular modeling software to model the protein interaction site of Gβ as determined in the X-ray structure disclosed herein. The computational docking screen was performed with the National Cancer Institute 1900 compound library wherein the compounds were tested for docking to the protein interaction site of Gβ using FLEXX™ (Tripos, Inc., St. Louis, Mo.) for docking and CSCORE™ (Tripos, Inc.) to evaluate the energetics and fitness of the docked structure. Algorithm-dependent lists of compounds, predicted to interact with the protein interaction site of Gβ and the structural model of the interaction, were generated. Selected compounds were subsequently analyzed in the phage ELISA binding assay disclosed herein to assess whether these compounds could bind to the protein interaction site of Gβ and interfere with protein interactions at this surface.
Wild-type Gβ1 and Gβ1 mutants were made in the baculovirus vector PDW464 which encodes a biotinylation site at a lysine upstream of the amino terminus of Gβ1 (Goubaeva, et al. (2003) supra). Mutants were generated by overlap extension PCR using standard protocols. The wild-type and mutant Gβ1 constructs consisted of a 20 amino acid biotin acceptor peptide (BAP) sequence fused in-frame with the amino-terminus of rat Gβ1 subunit. When coexpressed with biotin holoenzyme synthetase (BirA) in Sf9 cells, the Gβ1 subunit becomes covalently biotinylated in vivo at the Specific lysine acceptor residue in the BAP.
Phage ELISA assays used to assess peptide binding to wild-type and mutant b-βγ were performed according to standard methods (Smrcka and Scott (2002) Methods Enzymol. 344:557-76). Briefly, 1 μg streptavidin was immobilized in the well of a […] overnight at 4° C. The wells were blocked with 100 μL of 2% bovine serum albumin (BSA) in Tris-buffered saline (TBS) for 1 hour at 4° C. followed by three washes of 1×TBS/0.5% TWEEN®. […] The wells were washed, followed by the addition of 1×10^6 to 1×10^10 phage particles and incubated at 4° C. for 3 hours. The wells were then washed six times with TBS/0.5% TWEEN® followed by addition of 40 μL of 1:5000 dilution of anti-M13 antibody (Pharmacia, Uppsala, Sweden) and incubated at room temperature for 1 hour. The wells were washed, followed by the addition of 40 μL of (2,2′-Azino-bis(3-ethylbenzthiazoline)-6-sulfonic acid (ABTS) and the colorimetric reaction was monitored at 405 nm. Non-specific binding was subtracted for each reading.
A phage ELISA assay was used to determine whether small molecules identified in the computational screen could interact with the Gβγ protein interaction surface. […] The screen was based on a reduction in the optical density (OD) of wells containing Gβγ subunits and phage. […] Three background wells contained no βγ subunits.
As disclosed herein, biotinylated Gβγ subunits were immobilized on the surface of a 96-well plate coated with streptavidin, phage displaying Gβγ-binding peptides were subsequently added and binding in the presence and absence of test compounds detected with an anti-phage antibody.

[2] = test system: fMLP-dependent ERK activation; experiment: fMLP-dependent ERK activation; assay type: cell-based
[3] = test system: differentiated HL-60 neutrophil; experiment: Cytosolic Ca2+ in agonist-activated neutrophils (fura-2); assay type: cell-based
Description: FIG. 4 is a bar graph depicting the peak cytosolic Ca^2+ concentrations for neutrophils activated with fMLP or ATP agonists in the presence or absence of 10 μM NSC119910. fMLP, n=3; ATP, n=2.
Gβγ-regulated activities of PI3Kγ and PLC-β2/-β3 are important in chemoattractant-induced responses and inflammation. PI3Kγ is involved in the production of TI-IgλL and mice deficient in PI3Kγ, lack neutrophil migration (Li, et al, (2000) Science 287:1046-9). The PLC pathway is involved in down-modulation of chemotaxis and in hyperinflammatory conditions (Li, et al. (2000) supra). Therefore, it was determined whether NSC119910 could inhibit the Gβγ/PLC interaction and block PLC activation.
Ca^2+ fluxes were measured using two 35 mL cultures of differentiated HL-60 neutrophil cultures (0.2×10^6 cells/mL). Cells were cultured for three days with in DMSO (1.2%), washed in HSS and resuspended in 2 mL HBSS at a concentration of 7×10^6 cells/mL. Addition of DMSO to the growth medium induces differentiation of these cells into morphologically and functionally mature neutrophils (Collins, et al. (1978) Proc. Natl. Acad. Sci. USA 75:2458; Collins, et al., (1979) J. Exp. Med. 149:969). Neutrophils were preloaded with fura-2 (1 μM), a fluorescent Ca^2+-sensitive indicator (Suh, et al., (1996) J. Biol. Chem. 271:32753), for 45 minutes, washed with HBSS and resuspended in 2 mL of indicator-free HBSS. An 140 μL aliquote of cells was added to a total of 2 mL HBSS. Fluorescence ratios were taken by dual excitation at 340 and 380 nm and emission at 510 nm. After a stable baseline was established, either DMSO or NSC119910 was added and incubated for 5 minutes. Subsequently, either fMLP or ATP agonists were added to activate release of Ca^2+ from intracellular stores.

Gβγ subunits = Gβγ subunits (Rattus norvegicus, UniProt P54311); experiment: Gα subunit-Gβγ interaction (FIG. 2); assay type: binding
Description: FIG. 2 is a graph illustrating that NSC119910 binds to Gβγ and interferes with physiologically relevant protein interactions such as with the Gα subunit.
(§1) Fluorescein-labeled Gαi1 (Fαi1) was prepared in accordance with standard methods (Sarvazyan, et al. (1998) supra). Assays were used to determine peptide effects on Gα-Gβγ interactions included competition and dissociation assays (Ghosh, et al. (2003) supra). Briefly, for competition-based assays, 100 pM Fαi1 and indicated concentrations of peptides were added to 50 pM b-Gβ1γ2 immobilized on 10^5 beads per mL and incubated at room temperature for 30 minutes to reach equilibrium. The bead-associated fluorescence was then recorded in a BD Biosciences FACSCALIBUR™ flow cytometer. Data was corrected for background fluorescence and fit with a sigmoid dose response curve using Graph Pad Prism 4. To measure dissociation of Fαi1 from b-Gβ1γ2, 100 pM of Fαi1 was incubated with 50 pM immobilized b-Gβ1γ2 at room temperature for 15-20 minutes. The fluorescence of bound Fαi1 subunit was measured, followed by the addition of a 200-fold excess of unlabeled Gαi1 or peptides and the amount of Fαi1 remaining bound to the beads was measured at the indicated times.

Mice = experiment: 55° C. warm-water tail-flick test, intracerebroventricular injection; assay type: in vivo; conditions: 100 nmol NSC119910 i.c.v. with morphine
Description: Opioid receptors, μ, Δ, and κ, couple to Gi and Go proteins through α and βγ subunits, and regulate a number of signaling pathways. […] Mice were tested 20 minutes after the injection for an analgesic response in a 55° C. warm-water tail-flick test (Wells, et al. (2001) J. Pharmacol. Exp. Therapeut. 297:597-605).

PLC β = experiment: Phospholipase C-Gβγ interaction, PLC enzymatic activity (FIG. 3); assay type: biochemical; conditions: in vitro
Description: FIG. 3 is a graph illustrating the inhibition of phospholipase C-Gβγ interactions by NSC119910. Phospholipase enzymatic activity was determined using well-established methods (Ghosh and Smrcka (2003) Meth. Mol. Biol. 237:67-75).

PLC-β2 = experiment: Purified PLC-β2 activation by purified βγ (FIG. 6); assay type: biochemical; conditions: purified PLC-β2 with purified βγ
Description: (§2) FIG. 6 is a bar graph illustrating inhibition of PLC-β2 and PLC-β3 activation in the presence of exemplary compounds of the instant invention.
(§3) The ability of NSC119910 analogs to selectively modulate activation PLC-β2 and -β3 was analyzed. In this assay, PLC-β2 and PLC-β3 were purified and PLC enzymatic activity was measured in the presence or absence of purified βγ and in the presence or absence of analog.

PLC-β3 = experiment: Purified PLC-β3 activation by purified βγ (FIG. 6); assay type: biochemical; conditions: purified PLC-β3 with purified βγ
Description: as §2, §3

[4] = target: T2, Fαi1·b-Gβ1γ2 heterotrimer (Rattus norvegicus, UniProt P54311); experiment: Flow cytometry dissociation of Fαi1 from preformed heterotrimer with b-Gβ1γ2; assay type: binding; conditions: peptide added to preformed Fαi1·b-Gβ1γ2
T2 construct: made in house; host or cells: Sf9 insect cells (baculovirus) for b-Gβ1γ2
Description: as §1

PI3K = conditions: cited from earlier work
PLC β2 = conditions: cited from earlier work
type I adenylyl cyclase = conditions: cited from earlier work
[5] = test system: voltage-gated N-type Ca++ channel; conditions: cited from earlier work

## O=C1c2ccccc2C(=O)c2c(Nc3cc4c5c(ccc6c7ccc8c9c(cc(Nc%10cccc%11c%10C(=O)c%10ccccc%10C%11=O)c(c3c56)c97)-c3ccccc3C8=O)C(=O)c3ccccc3-4)cccc21 [NSC23128]
[1]; read-out: IC50
  pIC50: 4.80

## CCc1cc2c(c3ccc(C(=O)CBr)cc13)CCCC2 [NSC30820]
[1]; read-out: IC50
  pIC50: 7.00

## Nc1c(S(=O)(=O)O)cc(Nc2cccc(S(N)(=O)=O)c2)c2c1C(=O)c1ccccc1C2=O [NSC117079]
[1]; read-out: IC50
  pIC50: 4.37

## O=C(O)c1cccc2cccc(-c3c4ccc(=O)c(O)c-4oc4c(O)c(O)ccc34)c12 [NSC119893]
[2]
  fMLP-dependent ERK activation: without interfering
[3]
  Ca2+ mobilization: block

## O=C(O)C1CCCCC1c1c2ccc(=O)c(O)c-2oc2c(O)c(O)ccc12 (stereo not shown) [NSC119910]
[1]
  pIC50: 7.00
[2]
  fMLP-dependent ERK activation: without interfering
Gβγ subunits
  interactions of Gα subunit with Gβγ subunits: blocked
[3]
  Ca2+ mobilization: block
[3]; 10 μM compound, fMLP or ATP (FIG. 5)
  time taken for fluorescence to decline to half-peak values: not substantially affected
[3]; ATP-stimulated neutrophils, 10 μM compound
  increase in [Ca2+]: not significantly suppressed
[3]; fMLP-stimulated neutrophils, 10 μM compound
  increase in cytosolic Ca2+: suppressed
Mice
  shift to the left in morphine dose-response curve: 11 fold
PLC β
  PLC β-Gβγ interaction, enzymatic activity of PLC β: inhibited

## O=C(O)/C=C/c1c2ccc(=O)c(O)c-2oc2c(O)c(O)ccc12 [NSC119911]
[2]
  fMLP-dependent ERK activation: do not interfere
PLC-β2
  PLC-β2 activation: block PLC-β2 activation more effectively than PLC-β3 activation

## Nc1ccc(-c2ccc(Nc3cc(S(=O)(=O)O)c(N)c4c3C(=O)c3ccccc3C4=O)cc2)c(S(=O)(=O)O)c1 [NSC125910]
[1]; read-out: IC50
  pIC50: 4.17

## O=C(O)C1CC2C3(Cl)C(Cl)=C(Cl)C(Cl)C2(CC1c1c2ccc(=O)c(O)c-2oc2c(O)c(O)ccc12)C3(Cl)Cl (stereo not shown) [NSC158110]
[2]
  fMLP-dependent ERK activation: do not interfere

## N[C@H]1CCc2cc(O)c(O)c(O)c2-c2ccc(O)c(=O)cc21 [NSC201400]
[1]; read-out: IC50
  pIC50: 7.00
PLC-β3
  PLC-β3 activation: selectively potentiated
[2]
  fMLP-dependent ERK activation: do not interfere

## Ic1ccc2c(c1)N(c1ccccc1)c1cc(Nc3ccc4nc5ccc(I)cc5[n+](-c5ccccc5)c4c3)ccc1N2 [NSC402959]
[1]; read-out: IC50
  pIC50: 5.70

## C[C@H](NC(=O)[C@H](CS)NC(=O)[C@@H](N)CO)C(=O)N[C@@H](CCCNC(=N)N)C(=O)N[C@@H](Cc1ccccc1)C(=O)N[C@@H](Cc1ccccc1)C(=O)NCC(=O)N[C@H](C(=O)N1CCC[C@H]1C(=O)NCC(=O)N[C@@H](CS)C(=O)N[C@H](C(=O)O)[C@@H](C)O)[C@@H](C)O [SCAR]
[4]
  dissociation of a preformed heterotrimer: could not promote dissociation

## CC[C@H](C)[C@H](NC(=O)[C@H](CC(N)=O)NC(=O)[C@H](CC(C)C)NC(=O)[C@H](C)NC(=O)[C@H](C)NC(=O)[C@H](CCCNC(=N)N)NC(=O)[C@@H](NC(=O)[C@@H](N)CO)[C@@H](C)CC)C(=O)N[C@@H](CC(C)C)C(=O)NCC(=O)N[C@@H](Cc1ccc(O)cc1)C(=O)N1CCC[C@H]1C(=O)N[C@@H](CC(=O)O)C(=O)N[C@@H](Cc1ccc(O)cc1)C(=O)N[C@@H](CC(=O)O)C(=O)O [SIRK(Lys4Ala)]
[4]
  dissociation of a preformed heterotrimer: failed to accelerate heterotrimer dissociation

## CC[C@H](C)[C@H](NC(=O)[C@H](CC(N)=O)NC(=O)[C@H](CC(C)C)NC(=O)[C@H](C)NC(=O)[C@H](CCCCN)NC(=O)[C@H](CCCNC(=N)N)NC(=O)[C@@H](NC(=O)[C@@H](N)CO)[C@@H](C)CC)C(=O)N[C@@H](CC(C)C)C(=O)NCC(=O)N[C@@H](Cc1ccc(O)cc1)C(=O)N1CCC[C@H]1C(=O)N[C@@H](CC(=O)O)C(=O)N[C@@H](Cc1ccc(O)cc1)C(=O)N[C@@H](CC(=O)O)C(=O)O [SIRK]
PI3K
  activation of PI3K: blocked
[4]
  dissociation of a preformed heterotrimer: promotes dissociation
PLC β2; read-out: IC50 for inhibition of PLC β2 activation by Gβ1γ2
  pIC50: 5.30
Type I adenylyl cyclase
  Gβ1γ2 regulation of type I adenylyl cyclase: little or no effect
[5]
  Gβ1γ2 regulation of voltage-gated N-type Ca++ channel activity: little or no effect

## SIRKALNILAYPDYD [SIRK(Gly10Ala)]
[4]
  dissociation of a preformed heterotrimer: could still accelerate heterotrimer dissociation
PLC β2; inhibition of PLC β2 activation by Gβ1γ2
  change of IC50 relative to wild-type SIRK peptide: 12 fold
